Key:
HCT116 cells [1] = experiment: CellTiter-Glo cell viability assay in HCT116 cells (MT KRas, express HGF); format: cell-based; conditions: FIG. 2A; 96 hours after treatment; gefitinib 5 μM, JNJ 38877605 1 μM, PD184161 0.01 or 0.02 μM
From the text: Due to the presence of MT KRas, HCT116 cells have activated ERK signaling.

RKO cells [2] = experiment: CellTiter-Glo cell viability assay in RKO cells (WT KRas, express HGF); format: cell-based; conditions: FIG. 1A; 96 hours after treatment; gefitinib 5 μM, JNJ 38877605 1 μM, PD184161 0.01, 0.05 or 1 μM
Experimental: Cell viability assays were conducted using the CellTiter-Glo® Luminescent Cell Viability Assay kit purchased from Promega Corporation (Madison, Wis., US) and used per the manufacturer's protocol. Cells were seeded in 96-well plates at a density of 1×10^4 cells per well and cell viability was assessed at the indicated time points.

RKO cells [3] = experiment: Clonogenic (colony formation) assay in RKO cells; format: cell-based; conditions: FIG. 1B; 10 days after treatment; gefitinib 5 μM, JNJ 38877605 1 μM, PD184161 0.01, 0.05 or 1 μM
Experimental: (§1) For clonogenic assay cells were seeded in 6-well plates at a density of 400 cells per well and were treated as indicated. After colony formation (8-12 days), cells were stained with crystal violet (0.5% w/v) (see Kueng W., et al., Anal Biochem (1989) 182: 16-19), and the number of colonies was determined using ImageQuant TL software (GE Healthcare Life Sciences, Pittsburgh, Pa., US).
The effect of treatment with gefitinib alone or in combination with an inhibitor of MET kinase activity (using the inhibitor JNJ388777605) or inhibitor of MEK kinase activity (using the inhibitor PD184161) on viability and clonogenic growth was determined in RKO and HT29 cells.

HCT116 cells [4] = experiment: Clonogenic (colony formation) assay in HCT116 cells; format: cell-based; conditions: FIG. 2B; 10 days after treatment; gefitinib 5 μM, JNJ 38877605 1 μM, PD184161 0.01 or 0.02 μM
Experimental: HCT116 cells, which are MT KRas, were treated with gefitinib (5 μM) in the absence or presence of a MET kinase inhibitor (JNJ 38877605; 1 μM) or a MEKI kinase inhibitor (PD184161; 0.01 μM or 0.02 μM) as indicated.
as §1

DiFi cells = experiment: Caspase-Glo 3/7 activity assay in DiFi cells with or without CCD-18Co fibroblast conditioned medium; format: cell-based; conditions: FIG. 3C, 18 hr post-treatment; for caspase 3/7 activity (apoptosis), single agent: gefitinib 1 μM or JNJ 38877605 1 μM alone, no fibroblast conditioned media
From the text: Media were removed and replaced with serum-free MEM.

ERK 1/2 = experiment: Western blot of ERK 1/2 phosphorylation in RKO cells; format: cell-based; conditions: FIG. 1D, gefitinib dose or times post-treatment
Experimental: Immunoblotting was performed using standard procedures. Nitrocellulose membranes (GE Healthcare Life Sciences, Pittsburgh, Pa.) were blocked with 5% non-fat milk for 1 hour at room temperature, and incubated with primary antibodies overnight at 4° C. Primary antibodies used were anti-p-ERK1/2 (Cell Signaling Technology, Inc., Danvers, Mass., US) and anti-β-actin (Sigma-Aldrich Co. LLC, Saint Louis, Mo., US). Following washing with TBS-T buffer, membranes were incubated with horseradish peroxidase-conjugated secondary antibodies for 1 hour and then washed with TBS-T. Immunoblots were developed using the Amersham Western Blotting ECL chemiluminescent reagents (GE Healthcare Life Sciences, Pittsburgh, Pa., US). Protein loading was normalized by probing blots for the expression of β-actin.

[5] = patients with mCRC, Amado et al. 2008; cited from earlier work

Molecule | effect on HCT116 cell viability (HCT116 cells [1]) | effect on RKO cell viability (RKO cells [2]) | effect on clonogenic growth (colony formation) of RKO cells (RKO cells [3]) | effect on clonogenic growth (colony formation) of HCT116 cells (HCT116 cells [4]) | caspase 3/7 activity (apoptosis), single agent (DiFi cells) | phosphorylation status of ERK 1/2 (p-ERK 1/2 by Western blot) (ERK 1/2) | caspase 3/7 activity (apoptosis) in the presence of fibroblast conditioned media (FIB) (DiFi cells; gefitinib 1 μM, JNJ 38877605 1 μM, CCD-18Co conditioned media) | KRas WT patients who benefit [5]
Cn1cc(-c2ccc3nnc(C(F)(F)c4ccc5ncccc5c4)n3n2)cn1 [JNJ 38877605] | no apparent effect on cell viability | no apparent effect on cell viability | no apparent effect on clonogenic growth | no apparent effect on clonogenic growth | no apparent effect on induction of caspases/apoptosis |  |  | 
COc1cc2ncnc(Nc3ccc(F)c(Cl)c3)c2cc1OCCCN1CCOCC1 [gefitinib] | modestly decreased cell viability | modest | no apparent effect on clonogenic growth | no apparent effect on clonogenic growth | increase in caspase 3/7 activity | an increase in the amount of p-ERK 1/2 | inhibit gefitinib-induced apoptosis | 
PD184161 | no apparent effect on cell viability | no apparent effect on cell viability | no apparent effect on clonogenic growth | no apparent effect on clonogenic growth |  |  |  | 
panitumumab |  |  |  |  |  |  |  | 17%
